The text below walks through data of patent publication US8835429B2, “Pyrimidine compounds, their use as mTOR kinase and Pl3 kinase inhibitors, and their syntheses” (Wyeth LLC, priority 2009, dated 2014).

The target in one assay is PI3K-alpha (Homo sapiens, UniProt P42336). Put plainly: PI3K-alpha fluorescence polarization assay. The format is biochemical. The note with it: 20 μM PIP2, 25 μM ATP; read-out: PI3Kα IC50. An outline of the steps:
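PIP2 (diC8) and ATP substrate with PI3K in 20 mM HEPES pH 7.5, 2 mM MgCl2, 0.05% CHAPS, 0.01% βME; 1% DMSO final; 30–60 min reaction. Stopped with EDTA plus GST-GRP (70 nM) and TAMRA probe (10 nM); FP (mP) read after 30–90 min, with no-enzyme controls.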

The target of a further assay is PI3K-gamma (Homo sapiens, UniProt P48736). As to the kind of experiment: PI3K-gamma fluorescence polarization assay. The class given is biochemical. The note with it: 20 μM PIP2, 25 μM ATP; read-out: PI3Kγ IC50. As to the method: The reaction buffer was 20 mM HEPES, pH 7.5, 2 mM MgCl2, 0.05% CHAPS; and 0.01% βME (added fresh). The stop/detection buffer was 100 mM HEPES, pH 7.5, 4 mM EDTA, 0.05% CHAPS; ATP 20 mM in water; PIP2 (diC8, Echelon, Salt Lake City Utah cat #P-4508) 1 mM in water (MW=856.5). The GST-GRP was 1.75 mg/mL or 1.4 mg/mL in 10% glycerol. The red detector (TAMRA) was 2.5 μM. Nunc 384-well black polypropylene fluorescent plates were used for PI3K assays.
PI3K-gamma, sequence (P48736 whole entry, species assumed): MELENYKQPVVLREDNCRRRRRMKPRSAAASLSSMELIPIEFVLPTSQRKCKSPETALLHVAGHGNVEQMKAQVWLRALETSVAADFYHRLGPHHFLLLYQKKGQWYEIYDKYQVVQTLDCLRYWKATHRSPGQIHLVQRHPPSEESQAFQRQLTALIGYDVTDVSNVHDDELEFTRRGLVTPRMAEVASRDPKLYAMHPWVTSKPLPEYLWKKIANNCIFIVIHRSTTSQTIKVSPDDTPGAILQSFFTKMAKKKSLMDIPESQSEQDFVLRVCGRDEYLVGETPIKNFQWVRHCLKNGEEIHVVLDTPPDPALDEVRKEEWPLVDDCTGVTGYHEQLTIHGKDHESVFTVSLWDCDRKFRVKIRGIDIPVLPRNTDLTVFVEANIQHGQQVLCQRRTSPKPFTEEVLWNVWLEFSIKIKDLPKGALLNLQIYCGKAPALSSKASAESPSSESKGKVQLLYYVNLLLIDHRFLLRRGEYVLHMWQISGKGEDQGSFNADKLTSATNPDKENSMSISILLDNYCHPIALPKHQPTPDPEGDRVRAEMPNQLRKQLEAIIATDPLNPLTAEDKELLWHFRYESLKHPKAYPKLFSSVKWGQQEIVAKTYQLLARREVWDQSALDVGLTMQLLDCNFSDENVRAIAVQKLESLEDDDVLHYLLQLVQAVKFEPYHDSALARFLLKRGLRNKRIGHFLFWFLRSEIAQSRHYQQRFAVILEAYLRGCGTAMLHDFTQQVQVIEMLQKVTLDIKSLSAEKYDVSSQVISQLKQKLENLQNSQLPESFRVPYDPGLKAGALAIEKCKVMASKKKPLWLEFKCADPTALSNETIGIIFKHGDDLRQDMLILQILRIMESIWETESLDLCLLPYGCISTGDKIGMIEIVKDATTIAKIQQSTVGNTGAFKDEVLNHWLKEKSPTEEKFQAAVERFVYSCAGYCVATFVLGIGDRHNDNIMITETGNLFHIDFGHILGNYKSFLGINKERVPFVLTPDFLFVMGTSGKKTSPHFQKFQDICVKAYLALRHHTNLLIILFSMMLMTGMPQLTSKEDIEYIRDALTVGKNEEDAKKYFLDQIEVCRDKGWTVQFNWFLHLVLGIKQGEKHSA
The assay is run by placing 5 μL of diluted enzyme per well, then 5 μL of diluted compound (or 9.5 μL enzyme then 0.5 μL compound in DMSO) is added and mixed. Then, 10 μL substrate is added to start the reaction. The samples are incubated 30-60 minutes, then the reaction is stopped by adding 20 μL stop/detector mix. PI3K is diluted with reaction buffer (e.g., 5 μL or 7.5 μL PI3K into 620 μL reaction buffer), and 5 μL of diluted enzyme is used per well. A 5 μL portion of reaction buffer or of drug diluted in buffer (e.g., 4 μL/100 so final DMSO is 1% in reaction) is added to each. Pipetting up and down mixes the samples. Alternatively, the enzyme can be diluted to 1215 μL. In this case 9.8 μL is added per well and 0.2 μL compound is added in DMSO.
To prepare 1 mL of substrate solution, 955 μL reaction buffer, 40 μL PIP2, and 2.5 μL ATP are mixed. 10 μL of substrate is added to each well to start the reaction. […] The stop/detector mix is prepared by mixing 4 μL red detector and 1.6 μL or 2.0 μL GST-GRP with 1 mL stop buffer, which results in 10 nM probe and 70 nM GST-GRP. 20 μL of the stop/detector mix is added to each well to stop the reaction. The plates are read after 30-90 minutes keeping the red probe solutions dark. For the zero time point, stop/detector mix is added to the enzyme just before adding substrate. For an extra control, stop/detector mix is added to buffer (no enzyme) and substrate or to just buffer (no substrate). […] The recommended reaction has 0.06 μL per 20 μL (0.015 μg/20 μL) or 0.01125 μg/15 μL or 0.75 μg/mL.
Plates are read on machines with filters for TAMRA. The units are mP with no enzyme controls reading app 190-220 mP units. Fully active enzyme reduces fluorescence polarization down to 70-100 mP after 30 minutes. An active compound raises the mP values halfway to control or to 120-150 mP units.
For orientation: In fluorescence polarisation assays a small probe gives low polarisation when free and higher when bound to something large.

The test system of another assay is LNCap. Put plainly: In vitro cell growth assay (MTS), LNCap. The format is cell-based. The note with it: LNCaP, 72 h, human prostate line, three days after drug treatment.
The test system of the next assay is MDA468. Put plainly: In vitro cell growth assay (MTS), MDA468. The class given is cell-based. To be noted: 72 h, human breast line MDA468, three days after drug treatment, read-out: MDA IC50.
Another assay concerns the target mTOR (Homo sapiens, UniProt P42345). As to the kind of experiment: mTOR enzyme assay (DELFIA, purified FLAG-TOR, His6-S6K substrate). The class given is biochemical. Set-up: FLAG. To be noted: 100 μM ATP, 2 hours.

mTOR, sequence (P42345 1360-2549 limits assumed): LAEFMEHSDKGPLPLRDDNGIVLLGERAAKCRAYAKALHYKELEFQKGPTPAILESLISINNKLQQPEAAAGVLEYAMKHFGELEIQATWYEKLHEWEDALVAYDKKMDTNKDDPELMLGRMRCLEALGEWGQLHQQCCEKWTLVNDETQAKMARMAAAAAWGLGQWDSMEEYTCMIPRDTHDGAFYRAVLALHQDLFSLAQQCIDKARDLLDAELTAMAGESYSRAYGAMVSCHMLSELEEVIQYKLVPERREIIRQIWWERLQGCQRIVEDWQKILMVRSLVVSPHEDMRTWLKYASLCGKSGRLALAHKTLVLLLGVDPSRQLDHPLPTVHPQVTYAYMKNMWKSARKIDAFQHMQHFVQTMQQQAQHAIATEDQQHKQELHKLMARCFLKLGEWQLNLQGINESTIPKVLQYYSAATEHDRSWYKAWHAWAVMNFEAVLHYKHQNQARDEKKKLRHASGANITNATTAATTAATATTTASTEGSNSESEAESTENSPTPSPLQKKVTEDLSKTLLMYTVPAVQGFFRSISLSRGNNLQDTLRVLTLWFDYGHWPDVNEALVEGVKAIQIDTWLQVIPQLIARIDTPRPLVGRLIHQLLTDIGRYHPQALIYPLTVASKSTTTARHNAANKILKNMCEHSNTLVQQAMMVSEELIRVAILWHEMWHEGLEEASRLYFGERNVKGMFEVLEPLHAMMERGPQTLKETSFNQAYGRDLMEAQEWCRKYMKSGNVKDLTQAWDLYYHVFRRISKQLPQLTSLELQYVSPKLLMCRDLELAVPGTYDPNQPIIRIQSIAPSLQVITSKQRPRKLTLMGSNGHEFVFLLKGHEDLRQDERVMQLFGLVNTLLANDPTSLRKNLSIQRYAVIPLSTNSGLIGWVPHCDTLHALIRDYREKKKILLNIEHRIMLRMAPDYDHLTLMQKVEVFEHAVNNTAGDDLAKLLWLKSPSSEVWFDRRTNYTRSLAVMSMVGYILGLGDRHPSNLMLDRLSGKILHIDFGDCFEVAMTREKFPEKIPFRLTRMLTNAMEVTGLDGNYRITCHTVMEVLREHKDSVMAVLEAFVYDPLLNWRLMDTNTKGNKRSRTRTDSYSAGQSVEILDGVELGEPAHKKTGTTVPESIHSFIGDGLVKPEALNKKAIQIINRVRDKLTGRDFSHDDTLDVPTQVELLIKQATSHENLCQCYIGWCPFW
PI3K-alpha, sequence (P42336 whole entry, species assumed): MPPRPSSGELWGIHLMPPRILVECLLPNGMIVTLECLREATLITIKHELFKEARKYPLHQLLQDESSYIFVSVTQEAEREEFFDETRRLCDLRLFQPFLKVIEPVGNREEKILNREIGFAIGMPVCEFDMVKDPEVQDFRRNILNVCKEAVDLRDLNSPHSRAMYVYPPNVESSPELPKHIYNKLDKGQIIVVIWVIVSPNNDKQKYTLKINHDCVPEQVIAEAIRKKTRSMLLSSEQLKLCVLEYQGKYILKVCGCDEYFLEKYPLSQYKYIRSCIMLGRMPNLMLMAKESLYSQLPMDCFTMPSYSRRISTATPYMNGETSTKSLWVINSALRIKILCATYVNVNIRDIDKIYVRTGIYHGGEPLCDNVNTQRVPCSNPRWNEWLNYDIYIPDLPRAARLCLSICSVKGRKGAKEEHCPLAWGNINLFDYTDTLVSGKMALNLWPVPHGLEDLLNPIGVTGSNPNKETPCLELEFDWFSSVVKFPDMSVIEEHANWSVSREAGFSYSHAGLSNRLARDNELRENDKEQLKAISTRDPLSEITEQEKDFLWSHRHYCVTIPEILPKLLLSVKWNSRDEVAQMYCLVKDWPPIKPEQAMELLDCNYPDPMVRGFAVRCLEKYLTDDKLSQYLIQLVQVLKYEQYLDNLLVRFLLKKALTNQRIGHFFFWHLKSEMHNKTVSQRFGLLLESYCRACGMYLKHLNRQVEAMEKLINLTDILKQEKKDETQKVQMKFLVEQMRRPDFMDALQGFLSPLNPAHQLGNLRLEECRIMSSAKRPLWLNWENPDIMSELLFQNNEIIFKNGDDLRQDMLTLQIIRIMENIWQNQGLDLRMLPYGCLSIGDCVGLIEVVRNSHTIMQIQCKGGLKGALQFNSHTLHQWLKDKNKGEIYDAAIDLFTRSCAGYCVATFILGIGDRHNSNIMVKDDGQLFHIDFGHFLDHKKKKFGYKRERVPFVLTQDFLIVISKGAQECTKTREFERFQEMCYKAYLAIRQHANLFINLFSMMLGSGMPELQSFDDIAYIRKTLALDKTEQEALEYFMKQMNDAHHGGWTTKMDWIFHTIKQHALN
PI3K-alpha, sequence (P27986 whole entry partner, species assumed): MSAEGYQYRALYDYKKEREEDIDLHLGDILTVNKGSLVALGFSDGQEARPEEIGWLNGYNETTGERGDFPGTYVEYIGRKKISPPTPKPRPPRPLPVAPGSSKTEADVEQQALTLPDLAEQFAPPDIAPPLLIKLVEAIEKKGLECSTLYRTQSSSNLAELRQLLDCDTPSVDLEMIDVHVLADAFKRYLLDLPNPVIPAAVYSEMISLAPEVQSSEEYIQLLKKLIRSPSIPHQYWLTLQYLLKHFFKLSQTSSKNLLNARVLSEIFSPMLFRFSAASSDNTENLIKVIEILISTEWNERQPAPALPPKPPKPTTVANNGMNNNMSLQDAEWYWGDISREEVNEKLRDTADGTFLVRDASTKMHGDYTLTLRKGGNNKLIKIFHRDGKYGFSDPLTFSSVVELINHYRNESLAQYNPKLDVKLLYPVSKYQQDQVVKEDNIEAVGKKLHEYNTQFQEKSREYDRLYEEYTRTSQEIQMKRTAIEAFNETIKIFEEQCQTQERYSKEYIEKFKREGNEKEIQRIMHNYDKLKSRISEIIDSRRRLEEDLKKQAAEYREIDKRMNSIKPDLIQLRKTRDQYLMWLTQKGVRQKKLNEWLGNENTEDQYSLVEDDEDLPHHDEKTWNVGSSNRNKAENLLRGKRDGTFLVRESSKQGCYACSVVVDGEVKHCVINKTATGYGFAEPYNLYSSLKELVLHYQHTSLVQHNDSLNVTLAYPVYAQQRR

Turning to `CC(C)Nc1cc(N2C3COCC2COC3)nc(-c2ccc(NC(=O)Nc3ccc(CN4CCN(C)CC4)cc3)cc2)n1` [1-{4-[4-(3,7-dioxa-9-azabicyclo[3.3.1]non-9-yl)-6-(isopropylamino)pyrimidin-2-yl]phenyl}-3-{4-[(4-methylpiperazin-1-yl)methyl]phenyl}urea], the IC50 (as a rule, the concentration needed to halve the response being measured) is 3160 nM at PI3K-alpha; 6870 nM at PI3K-gamma; 600 nM in the assay on LNCap; 1000 nM in the assay on MDA468; 17.5 nM against mTOR.

For `C[C@@H]1CN(c2cc(N3C4CCC3COC4)nc(-c3ccc(NC(=O)Nc4ccc(C(=O)N5CCN(C)CC5)cc4)cc3)n2)C[C@H](C)O1` [1-(4-{4-[(2R,6S)-2,6-dimethylmorpholin-4-yl]-6-(3-oxa-8-azabicyclo[3.2.1]oct-8-yl)pyrimidin-2-yl}phenyl)-3-{4-[(4-methylpiperazin-1-yl)carbonyl]phenyl}urea], the IC50 at PI3K-alpha was 180 nM; at PI3K-gamma it was 1030 nM; in the assay on LNCap, at most 0.8 nM; with MDA468 it was 0.8 nM; at mTOR, 3.55 nM.

Consider `CC(C)Nc1cc(N2C3CCC2COC3)nc(-c2ccc(NC(=O)Nc3cccnc3)cc2)n1` [1-(4-{4-[(1-methylethyl)amino]-6-(3-oxa-8-azabicyclo[3.2.1]oct-8-yl)pyrimidin-2-yl}phenyl)-3-pyridin-3-ylurea], for which the IC50 is 4350 nM at PI3K-alpha; at least 10000 nM at PI3K-gamma; 45 nM in the assay with LNCap; 100 nM with MDA468; 1.1 nM on mTOR.

On to `C[C@@H]1COCCN1c1cc(N2C3CCC2COC3)nc(-c2ccc(NC(=O)Nc3ccc(N4CCN(C)CC4)cc3)cc2)n1` [1-(4-{4-[(3R)-3-methylmorpholin-4-yl]-6-(3-oxa-8-azabicyclo[3.2.1]oct-8-yl)pyrimidin-2-yl}phenyl)-3-[4-(4-methylpiperazin-1-yl)phenyl]urea], for which the IC50 was 864 nM on PI3K-alpha; 3500 nM on PI3K-gamma; at most 0.8 nM in the assay on LNCap; 1 nM with MDA468; 1.25 nM on mTOR.

As for `O=C(Nc1ccncc1)Nc1ccc(-c2nc(NC3CCOCC3)cc(N3C4CCC3COC4)n2)cc1` [1-{4-[4-(3-oxa-8-azabicyclo[3.2.1]oct-8-yl)-6-(tetrahydro-2H-pyran-4-ylamino)pyrimidin-2-yl]phenyl}-3-pyridin-4-ylurea], the IC50 is 2010 nM on PI3K-alpha; 12000 nM at PI3K-gamma; 40 nM with LNCap; 40 nM in the assay on MDA468; 3.8 nM against mTOR.

For the compound `CN1CCN(Cc2ccc(NC(=O)Nc3ccc(-c4nc(NC5CCOCC5)cc(N5C6CCC5COC6)n4)cc3)cc2)CC1` [1-{4-[(4-methylpiperazin-1-yl)methyl]phenyl}-3-{4-[4-(3-oxa-8-azabicyclo[3.2.1]oct-8-yl)-6-(tetrahydro-2H-pyran-4-ylamino)pyrimidin-2-yl]phenyl}urea], the half-inhibitory concentration (IC50) on PI3K-alpha is 931 nM; on PI3K-gamma it was 2180 nM; with LNCap, 40 nM; in the assay with MDA468, 65 nM; against mTOR it was 6.3 nM.

For the compound `CCN(CC)c1cc(N2C3CCC2COC3)nc(-c2ccc(NC(=O)Nc3ccc(N4CCN(C)CC4)cc3)cc2)n1` [1-{4-[4-(diethylamino)-6-(3-oxa-8-azabicyclo[3.2.1]oct-8-yl)pyrimidin-2-yl]phenyl}-3-[4-(4-methylpiperazin-1-yl)phenyl]urea], the IC50 on PI3K-alpha is 2910 nM; at PI3K-gamma, 3390 nM; in the assay with LNCap, 132 nM; in the assay on MDA468, 560 nM; against mTOR, 5.85 nM.

Consider `CC(C)N1CCN(C(=O)c2ccc(NC(=O)Nc3ccc(-c4nc(N5C[C@@H](C)O[C@@H](C)C5)cc(N5C6CCC5COC6)n4)cc3)cc2)CC1` [1-(4-{4-[(2R,6S)-2,6-dimethylmorpholin-4-yl]-6-(3-oxa-8-azabicyclo[3.2.1]oct-8-yl)pyrimidin-2-yl}phenyl)-3-(4-{[4-(1-methylethyl)piperazin-1-yl]carbonyl}phenyl)urea], for which the IC50 on PI3K-alpha was 293 nM; at PI3K-gamma, 915 nM; with LNCap, at most 0.8 nM; in the assay with MDA468 it was 0.8 nM; against mTOR it was 2.7 nM.

As to `CC(C)Nc1cc(N2C3COCC2COC3)nc(-c2ccc(NC(=O)Nc3ccc(OCCN(C)C)cc3)cc2)n1` [1-{4-[2-(dimethylamino)ethoxy]phenyl}-3-{4-[4-(3,7-dioxa-9-azabicyclo[3.3.1]non-9-yl)-6-(isopropylamino)pyrimidin-2-yl]phenyl}urea], the IC50 at PI3K-alpha turned out to be 1760 nM; at PI3K-gamma, 8630 nM; with LNCap, 420 nM; in the assay with MDA468 it was 600 nM; against mTOR, 16.5 nM.

Take `C[C@@H]1CN(c2cc(N3C4CCC3COC4)nc(-c3ccc(NC(=O)Nc4ccncc4)cc3)n2)C[C@H](C)O1` [1-(4-{4-[(2R,6S)-2,6-dimethylmorpholin-4-yl]-6-(3-oxa-8-azabicyclo[3.2.1]oct-8-yl)pyrimidin-2-yl}phenyl)-3-pyridin-4-ylurea]: the IC50 was determined as 1340 nM on PI3K-alpha; 5370 nM at PI3K-gamma; 50 nM in the assay on LNCap; 280 nM in the assay with MDA468; 2.6 nM at mTOR.

For `CC(C)Nc1cc(N2C3CCC2COC3)nc(-c2ccc(NC(=O)Nc3ccc(OCCN4CCCC4)cc3)cc2)n1` [1-(4-{4-[(1-methylethyl)amino]-6-(3-oxa-8-azabicyclo[3.2.1]oct-8-yl)pyrimidin-2-yl}phenyl)-3-[4-(2-pyrrolidin-1-ylethoxy)phenyl]urea], the IC50 at PI3K-alpha amounted to 1320 nM; at PI3K-gamma it was 4730 nM; with LNCap, 50 nM; in the assay on MDA468, 55 nM; at mTOR it was 3.05 nM.

Consider `CN1CCN(Cc2ccc(NC(=O)Nc3ccc(-c4nc(N5C6CCC5COC6)cc(N5C[C@H]6C[C@@H]5CO6)n4)cc3)cc2)CC1` [1-{4-[(4-methylpiperazin-1-yl)methyl]phenyl}-3-(4-{4-[(1R,4R)-2-oxa-5-azabicyclo[2.2.1]hept-5-yl]-6-(3-oxa-8-azabicyclo[3.2.1]oct-8-yl)pyrimidin-2-yl}phenyl)urea], for which the IC50 at PI3K-alpha stood at 1190 nM; at PI3K-gamma, 7590 nM; with LNCap, 180 nM; in the assay with MDA468, 190 nM; against mTOR, 9.9 nM.

Turning to `CN1CCN(c2ccc(NC(=O)Nc3ccc(-c4nc(N5C6CCC5COC6)c(Cl)c(N5C6CCC5COC6)n4)cc3)cc2)CC1` [1-[4-(5-chloro-4,6-di-3-oxa-8-azabicyclo[3.2.1]oct-8-ylpyrimidin-2-yl)phenyl]-3-[4-(4-methylpiperazin-1-yl)phenyl]urea], the IC50 was 998 nM on PI3K-alpha; 1020 nM on PI3K-gamma; 65 nM with LNCap; 210 nM in the assay on MDA468; 0.505 nM against mTOR.

Turning to `CN1CCN(c2ccc(NC(=O)Nc3ccc(-c4nc(N5C6CCC5COC6)cc(N5C[C@@H]6C[C@H]5CO6)n4)cc3)cc2)CC1` [1-[4-(4-methylpiperazin-1-yl)phenyl]-3-(4-{4-[(1S,4S)-2-oxa-5-azabicyclo[2.2.1]hept-5-yl]-6-(3-oxa-8-azabicyclo[3.2.1]oct-8-yl)pyrimidin-2-yl}phenyl)urea], the IC50 is 1780 nM on PI3K-alpha; at least 10000 nM at PI3K-gamma; 10 nM in the assay on LNCap; 18 nM with MDA468; 9.75 nM at mTOR.
